molecular target: T1, human PPARα (Homo sapiens, UniProt Q07869); assay: Human PPARα Reporter Assay (luciferase, Indigo Biosciences); assay type: cell-based; settings: antagonism; luciferase reporter cells, overnight incubation; read-out: PPARα IC50
T1 construct: host or cells: proprietary non-human mammalian cells
T1 sequence (Q07869 1-468): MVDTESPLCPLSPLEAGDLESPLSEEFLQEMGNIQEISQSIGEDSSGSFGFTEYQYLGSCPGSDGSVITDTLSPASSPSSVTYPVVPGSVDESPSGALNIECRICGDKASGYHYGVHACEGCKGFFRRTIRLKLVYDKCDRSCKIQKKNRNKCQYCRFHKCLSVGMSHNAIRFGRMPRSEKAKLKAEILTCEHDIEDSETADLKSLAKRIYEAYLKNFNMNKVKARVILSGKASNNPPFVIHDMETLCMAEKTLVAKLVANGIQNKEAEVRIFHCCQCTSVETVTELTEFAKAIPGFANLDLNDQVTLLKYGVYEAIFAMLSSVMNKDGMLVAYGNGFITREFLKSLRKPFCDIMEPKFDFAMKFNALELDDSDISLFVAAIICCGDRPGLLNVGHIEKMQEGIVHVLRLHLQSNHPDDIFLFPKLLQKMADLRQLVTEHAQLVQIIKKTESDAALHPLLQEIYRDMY
Procedure: Human PPARα Reporter Assay
The screening of test compounds for agonist or antagonist activities against human PPARα receptors was performed using a commercial kit, Human PPARα Reporter Assay System (Indigo Biosciences, Cat. #IB00111).
This nuclear receptor assay system utilizes proprietary non-human mammalian cells engineered to provide constitutive, high-level expression of Human PPARα. Because these cells incorporate a PPARα-responsive luciferase reporter gene, quantifying expressed luciferase activity provides a sensitive surrogate measure of PPARα activity in the treated cells. The primary application of this reporter assay system is in the screening of test samples to quantify any functional activity, either agonist or antagonist, that they may exert against human PPARα.
Briefly, reporter cells are dispensed into wells of the assay plate and then immediately dosed with test compounds. Following an overnight incubation, the treatment media is discarded and Luciferase Detection Reagent (LDR) is added. The intensity of light emission from the ensuing luciferase reaction provides a sensitive measure that is directly proportional to the relative level of PPARα activation in the reporter cells.

| SMILES | IC50 [nM] |
| --- | --- |
| CC1(C)C(=O)N(c2ccc(C(F)(F)F)cc2)N=C1CCCc1ccc(OC(C)(C(=O)O)c2ccccc2)cc1 (single isomer, unassigned) [53-enantiomer#1, 2-(4-(3-(4,4-dimethyl-5-oxo-1-(4-(trifluoromethyl)phenyl)-4,5-dihydro-1H-pyrazol-3-yl)propyl)phenoxy)-2-phenylpropanoic acid] | 820 |
| CC1(C)C(=O)N(c2cccc(C(F)(F)F)c2)N=C1CCCc1ccc(OC(C)(C(=O)O)c2ccccc2)cc1 (single isomer, unassigned) [54-enantiomer#1, 2-(4-(3-(4,4-dimethyl-5-oxo-1-(3-(trifluoromethyl)phenyl)-4,5-dihydro-1H-pyrazol-3-yl)propyl)phenoxy)-2-phenylpropanoic acid] | 640 |
| CC(C)(Oc1ccc(CCCC2=NN(Cc3ccc(C(C)(C)C)cc3)C(=O)C2(C)C)cc1)C(=O)NCc1ccccc1 [Example 3, N-benzyl-2-(4-(3-(1-(4-(tert-butyl)benzyl)-4,4-dimethyl-5-oxo-4,5-dihydro-1H-pyrazol-3-yl)propyl)phenoxy)-2-methylpropanamide] | 160 |
| CC(C)(Oc1ccc(CCCC2=NN(Cc3ccc(C(C)(C)C)cc3)C(=O)C2(C)C)cc1)C(=O)NCc1ccccn1 [Example 4, 2-(4-(3-(1-(4-(tert-butyl)benzyl)-4,4-dimethyl-5-oxo-4,5-dihydro-1H-pyrazol-3-yl)propyl)phenoxy)-2-methyl-N-(pyridin-2-ylmethyl)propanamide] | 240 |
| CC(C)(Oc1ccc(CCCC2=NN(Cc3ccc(C(C)(C)C)cc3)C(=O)C2(C)C)cc1)C(=O)NCc1ccncc1 [Example 5, 2-(4-(3-(1-(4-(tert-butyl)benzyl)-4,4-dimethyl-5-oxo-4,5-dihydro-1H-pyrazol-3-yl)propyl)phenoxy)-2-methyl-N-(pyridin-4-ylmethyl)propanamide] | 280 |
| CC(C)(Oc1ccc(CCCC2=NN(Cc3ccc(C(C)(C)C)cc3)C(=O)C2(C)C)cc1)C(=O)NCC1CCCCC1 [Example 6, 2-(4-(3-(1-(4-(tert-butyl)benzyl)-4,4-dimethyl-5-oxo-4,5-dihydro-1H-pyrazol-3-yl)propyl)phenoxy)-N-(cyclohexylmethyl)-2-methylpropanamide] | 420 |
| CC(C)(Oc1ccc(CCCC2=NN(Cc3cccc(C(F)(F)F)c3)C(=O)C2(C)C)cc1)C(=O)O [Example 7, 2-(4-(3-(4,4-dimethyl-5-oxo-1-(3-(trifluoromethyl)benzyl)-4,5-dihydro-1H-pyrazol-3-yl)propyl)phenoxy)-2-methylpropanoic acid] | 900 |
| CC(C)(Oc1ccc(CCCC2=NN(CCc3ccccc3)C(=O)C2(C)C)cc1)C(=O)O [Example 9, 2-(4-(3-(4,4-dimethyl-5-oxo-1-phenethyl-4,5-dihydro-H-pyrazol-3-yl)propyl)phenoxy)-2-methylpropanoic acid] | 1000 |
| CC(C)(Oc1ccc(CCCC2=NN(c3ccccc3)C(=O)C2(C)C)cc1)C(=O)O [Example 10, 2-(4-(3-(4,4-dimethyl-5-oxo-1-phenyl-4,5-dihydro-1H-pyrazol-3-yl)propyl)phenoxy)-2-methylpropanoic acid] | 410 |
| CC(C)(Oc1ccc(CCCC2=NN(Cc3ccc(Br)cc3)C(=O)C2(C)C)cc1)C(=O)O [Example 13, 2-(4-(3-(1-(4-bromobenzyl)-4,4-dimethyl-5-oxo-4,5-dihydro-1H-pyrazol-3-yl)propyl)phenoxy)-2-methylpropanoic acid] | 360 |
| CC(C)(Oc1ccc(CCCC2=NN(Cc3ccc(-c4ccccc4)cc3)C(=O)C2(C)C)cc1)C(=O)O [Example 14, 2-(4-(3-(1-([1,1′-biphenyl]-4-ylmethyl)-4,4-dimethyl-5-oxo-4,5-dihydro-1H-pyrazol-3-yl)propyl)phenoxy)-2-methylpropanoic acid] | 260 |
| CC(C)(Oc1ccc(CCCC2=NN(Cc3ccc(C4=CCCCC4)cc3)C(=O)C2(C)C)cc1)C(=O)O [Example 15, 2-(4-(3-(4,4-dimethyl-5-oxo-1-((2′,3′,4′,5′-tetrahydro-[1,1′-biphenyl]-4-yl)methyl)-4,5-dihydro-1H-pyrazol-3-yl)propyl)phenoxy)-2-methylpropanoic acid] | 130 |
| CC(C)(Oc1ccc(CCCC2=NN(Cc3ccc(C4CC4)cc3)C(=O)C2(C)C)cc1)C(=O)O [Example 16, 2-(4-(3-(1-(4-cyclopropylbenzyl)-4,4-dimethyl-5-oxo-4,5-dihydro-1H-pyrazol-3-yl)propyl)phenoxy)-2-methylpropanoic acid] | 140 |
| CC(C)(Oc1ccc(CCCC2=NN(Cc3ccc(C4CCCCC4)cc3)C(=O)C2(C)C)cc1)C(=O)O [Example 17, 2-(4-(3-(1-(4-cyclohexylbenzyl)-4,4-dimethyl-5-oxo-4,5-dihydro-1H-pyrazol-3-yl)propyl)phenoxy)-2-methylpropanoic acid] | 140 |

Now those with a lower IC50, led by results:

| IC50 [nM] | SMILES |
| --- | --- |
| 2.1 | CC1(C)C(=O)N(c2ccc(C(F)(F)F)cc2)N=C1CCCc1ccc(OC(C)(C(=O)O)c2ccccc2)cc1 (single isomer, unassigned) [53-enantiomer#2, 2-(4-(3-(4,4-dimethyl-5-oxo-1-(4-(trifluoromethyl)phenyl)-4,5-dihydro-1H-pyrazol-3-yl)propyl)phenoxy)-2-phenylpropanoic acid] |
| 8.9 | CC1(C)C(=O)N(c2cccc(C(F)(F)F)c2)N=C1CCCc1ccc(OC(C)(C(=O)O)c2ccccc2)cc1 (single isomer, unassigned) [54-enantiomer#2, 2-(4-(3-(4,4-dimethyl-5-oxo-1-(3-(trifluoromethyl)phenyl)-4,5-dihydro-1H-pyrazol-3-yl)propyl)phenoxy)-2-phenylpropanoic acid] |
| 15 | CC(C)(Oc1ccc(CCCC2=NN(Cc3ccc(C(C)(C)C)cc3)C(=O)C2(C)C)cc1)C(=O)O [Example 1, 2-(4-(3-(1-(4-(tert-butyl)benzyl)-4,4-dimethyl-5-oxo-4,5-dihydro-1H-pyrazol-3-yl)propyl)phenoxy)-2-methylpropanoic acid] |
| 2.1 | CC(C)(Oc1ccc(CCCC2=NN(Cc3ccc(C(C)(C)C)cc3)C(=O)C2(C)C)cc1)C(=O)NS(=O)(=O)c1ccccc1 [Example 2, 2-(4-(3-(1-(4-(tert-butyl)benzyl)-4,4-dimethyl-5-oxo-4,5-dihydro-1H-pyrazol-3-yl)propyl)phenoxy)-2-methyl-N-(phenylsulfonyl)propanamide] |
| 62 | CC(C)(Oc1ccc(CCCC2=NN(Cc3ccc(C(F)(F)F)cc3)C(=O)C2(C)C)cc1)C(=O)O [Example 8, 2-(4-(3-(4,4-dimethyl-5-oxo-1-(4-(trifluoromethyl)benzyl)-4,5-dihydro-1H-pyrazol-3-yl)propyl)phenoxy)-2-methylpropanoic acid] |
| 8.1 | CC(C)(Oc1ccc(CCCC2=NN(c3ccc(C(C)(C)C)cc3)C(=O)C2(C)C)cc1)C(=O)O [Example 11, 2-(4-(3-(1-(4-(tert-butyl)phenyl)-4,4-dimethyl-5-oxo-4,5-dihydro-1H-pyrazol-3-yl)propyl)phenoxy)-2-methylpropanoic acid] |
| 22 | CC(C)c1ccc(CN2N=C(CCCc3ccc(OC(C)(C)C(=O)O)cc3)C(C)(C)C2=O)cc1 [Example 12, 2-(4-(3-(1-(4-isopropylbenzyl)-4,4-dimethyl-5-oxo-4,5-dihydro-1H-pyrazol-3-yl)propyl)phenoxy)-2-methylpropanoic acid] |

From US9862708B2, “Pyrazolone compounds and uses thereof” (Tempest Therapeutics, Inc., priority 2014, dated 2018)
